The term IC50 denotes the concentration that gives 50% inhibition. Lower therefore signals greater potency in that assay.

For one experiment, the target named is BRAF (V600E) kinase (Homo sapiens (Human), UniProt P15056, V600E). The experiment is described as follows: BRAF (V600E) kinase inhibitory activity. It counts as biochemical. The note with it: BRAF (V600E) enzyme, GSTP1-MEK1 (K96R) substrate, compound 1.0 μM; read-out: Inhibitory rate (%) at 1.0 μM. Here is the method: A test compound (2.5 μL) dissolved in dimethyl sulfoxide (DMSO) was added to 37.5 μL of a reaction solution (25 mM HEPES (pH 7.5), 10 mM magnesium acetate, 1 mM dithiothreitol) containing 30 ng of BRAF (V600E) enzyme and 250 ng of recombinant protein GSTP1-MEK1 (K96R) prepared using FreeStyle 293 expression system (Invitrogen), and the mixture was incubated at room temperature for 10 min. 10 μL of ATP solution (2.5 μM ATP, 0.1 μCi [γ-^32P]ATP) was added to the obtained mixture, and the mixture was reacted at room temperature for 20 min. The reaction was quenched by adding 50 μL of ice-cooled 20% trichloroacetic acid (Wako Pure Chemical Industries, Ltd.) to the reaction solution. The reaction solution was allowed to stand at 4° C. for 30 min., and the acid-precipitable fraction was transferred to GF/C filter plate (Millipore Corporation) using cell harvester (PerkinElmer). The plate was dried at 45° C. for 60 min., and 40 μL of MicroScinti 0 (PerkinElmer) was added thereto. The radioactivity was measured using TopCount (PerkinElmer). The kinase inhibitory rate (%) of the test compound was calculated by the following formula: Inhibitory rate (%)=(1−(count of test compound−blank)÷(control−blank))×100
BRAF (V600E) kinase, sequence (P15056 457-717 V600E): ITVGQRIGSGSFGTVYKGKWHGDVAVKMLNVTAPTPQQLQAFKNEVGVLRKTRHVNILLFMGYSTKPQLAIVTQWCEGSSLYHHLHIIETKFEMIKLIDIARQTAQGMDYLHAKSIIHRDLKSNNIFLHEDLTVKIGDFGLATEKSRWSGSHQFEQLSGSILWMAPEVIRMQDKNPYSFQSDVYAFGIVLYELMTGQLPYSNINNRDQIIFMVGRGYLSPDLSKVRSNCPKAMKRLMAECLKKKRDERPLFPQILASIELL
The count of the solution reacted without addition of the compound was used as a “control”, and the count of the solution without the compound and enzyme was used as a “blank”.

Experiment [1] has as its system MEK1/2 phosphorylation in human colon cancer cell HT-29. The experiment in a line: Colon cancer cell HT-29 intracellular MEK phosphorylation inhibitory activity in vitro. It is filed as cell-based. The conditions noted are these: HT-29 cells; for IC50: 2 hrs treatment, phosphorylated MEK1/2 Western blot; for inhibition at 0.5 µM: MEK1/2 protein phosphorylation, compound 0.5 μM, read-out: Inhibitory rate (%) at 0.5 μM. The protocol: 500 μL of a cell suspension of human colon cancer cell HT-29 (purchased from American Type Culture Collection (ATCC)) was plated in a 48-well plate (100,000 cells/well), and the cells were cultured overnight at 37° C. in the presence of 5% CO2, treated with a test compound (250 μL/well) diluted in 3-fold dilution series and cultured for 2 hrs. After 2 hrs, the culture medium containing the test compound was removed, and the cells were lysed with SDS sample buffer (100 μL/well) and heated at 95° C. for 5 min. Thereafter, the cells lysed with SDS sample buffer were applied to SDS-PAGE, and the protein was transferred onto Sequi-Blot™ PVDF Membrane (Bio-Rad) by the Western blot method. The PDVF membrane was blocked with a Block-Ace solution (Snow Brand Milk Products Co., Ltd) dissolved in phosphate buffered saline (MP Biochemicals) to 5% W/V, and reacted overnight with anti-phosphorylated MEK1/2 (Ser217/221) (Cell signaling #9121) diluted 1000-fold with phosphate buffered saline containing 0.4% Block-Ace. The membrane was washed with phosphate buffered saline containing 0.1% Tween 20 (Wako Pure Chemical Industries, Ltd.), and reacted at room temperature for 1 hr with HRP labeled rabbit IgG polyclonal antibody (Cell signaling #7074) diluted 1000-fold with phosphate buffered saline containing 0.4% Block-Ace. The membrane was washed in the same manner as above, chemical luminescence of a phosphorylated MEK1/2 protein labeled with the antibody, which was caused by ECL-plus Detection Reagent (Amersham bioscience), was detected by Luminescent Image Analyzer LAS-1000 (FUJIFILM Corporation). Taking the luminescence of the control group free of the test compound as 100%, the concentration (IC50 value) of the compound necessary for inhibiting the residual luminescence to 50% of the control group was calculated. In addition, MEK1/2 protein phosphorylation inhibitory rate (%) of the test compound at compound concentration 0.5 μM was calculated by the following formula. The results are shown in Table 2-B. Inhibitory rate (%)=(1−(luminescence of test compound−blank)÷(luminescence of control group−blank))×100
A general note: Immunoblotting shows a protein as a band on a membrane.

The subject of experiment [2] is human colon cancer cell HT-29. The experiment in a line: Colon cancer cell HT-29 growth suppressive activity in vitro. The conditions noted are these: for IC50: 72 h, HT-29 cells, 3 days culture, SRB staining; for inhibition at 10 µM: HT-29 cell proliferation, compound 10 μM, read-out: Inhibitory rate (%) at 10 μM. It counts as cell-based. The protocol:
100 μL of a cell suspension (3,000 cells/well) of human colon cancer cell HT-29 (purchased from ATCC) was plated in a 96-well plate, and the cells were cultured at 37° C. in the presence of 5% CO2. The next day, 100 μL of culture medium containing each test compound diluted in 2-fold dilution was added, and the cells were cultured for 3 days. The culture medium containing the test compound was removed, and the cells were washed with phosphate buffered saline (MP Biochemicals). A 50% trichloroacetic acid solution was added to the final concentration of 10% (v/v), and the mixture was stood overnight at 4° C., whereby the cells were fixed to the plate. Then, a dye SRB 0.4% (w/v) solution (dissolved in 1% acetic acid) was added at 50 μl/well, whereby the cell protein was fixed and stained (Skehan et al., Journal Of National Cancer Institute, vol. 82, pp. 1107-1112, 1990). The cells were washed 3 times with 1% acetic acid solution (200 μL/well), and 100 μL of an extract (10 mM Tris buffer) was added to extract the dye. The absorbance at an absorption wavelength 550 nm was measured, and cell amount was measured as a protein amount. Taking the protein amount of the control group free of the test compound solution as 100%, the proportion of the residual protein amount of each treatment group was determined and the concentration of the compound necessary for suppressing the residual cell amount to 50% of the control (IC50 value) was calculated. In addition, cell proliferation inhibitory rate (%) of the test compound at compound concentration 10 μM was calculated by the following formula. The results are shown in Table 3-B. Inhibitory rate (%)=(1−(absorbance of test compound−blank)÷(absorbance of control group−blank))×100
A general note: In SRB staining, fixed cells bind dye roughly in proportion to their protein.

For `CC(C)(C#N)c1cccc(C(=O)Nc2cccc(Oc3ccc4nc(NC(=O)C5CC5)sc4c3C#N)c2)c1` [Example 1, N-[3-({7-cyano-2-[(cyclopropylcarbonyl)amino]-1,3-benzothiazol-6-yl}oxy)phenyl]-3-(1-cyano-1-methylethyl)benzamide], the inhibition at 1 µM at BRAF (V600E) kinase turned out to be 101%.

Regarding `CC(=O)Nc1nc2ccc(Oc3cccc(NC(=O)c4cccc(C(C)(C)C#N)c4)c3)c(C#N)c2s1` [Example 11, N-(3-{[2-(acetylamino)-7-cyano-1,3-benzothiazol-6-yl]oxy}phenyl)-3-(1-cyano-1-methylethyl)benzamide], the inhibition at 1 µM at BRAF (V600E) kinase was 101%.

As to `CC(=O)Nc1nc2ccc(Oc3cccc(NC(=O)C(C)(C)c4cccc(Br)c4)c3)c(C#N)c2s1` [Example 13, N-(3-{[2-(acetylamino)-7-cyano-1,3-benzothiazol-6-yl]oxy}phenyl)-2-(3-bromophenyl)-2-methylpropanamide], the inhibition at 1 µM at BRAF (V600E) kinase came out at 98%.

On to `CC(=O)Nc1nc2ccc(Oc3cccc(NC(=O)Nc4ccc(Cl)c(C(F)(F)F)c4)c3)c(C#N)c2s1` [Example 21, N-{6-[3-({[4-chloro-3-(trifluoromethyl)phenyl]carbamoyl}amino)phenoxy]-7-cyano-1,3-benzothiazol-2-yl}acetamide], for which, at BRAF (V600E) kinase, the inhibition at 1 µM was 100%.

`CC(=O)Nc1nc2ccc(Oc3cccc(NC(=O)Nc4ccc(C(C)(C)C)cc4)c3)c(C#N)c2s1` [Example 22, N-[6-(3-{[(4-tert-butylphenyl)carbamoyl]amino}phenoxy)-7-cyano-1,3-benzothiazol-2-yl]acetamide]: in experiment [1], the half-inhibitory concentration (IC50) is less than 300 nM and the inhibition at 0.5 µM was determined as 83%.

In the case of `N#Cc1c(Oc2ccc(F)c(NC(=O)Nc3ccc(C(F)(F)F)cc3)c2)ccc2nc(NC(=O)C3CC3)sc12` [Example 32, N-{7-cyano-6-[4-fluoro-3-({[4-(trifluoromethyl)phenyl]carbamoyl}amino)phenoxy]-1,3-benzothiazol-2-yl}cyclopropanecarboxamide], in experiment [1], the IC50 is less than 300 nM and the inhibition at 0.5 µM was found to be 83%.

For the compound `CC(C)(C#N)c1cccc(C(=O)Nc2cccc(Oc3ccc4nc(NC(=O)C5CC5)sc4c3[N+](=O)[O-])c2)c1` [Example 37, 3-(1-cyano-1-methylethyl)-N-[3-({2-[(cyclopropylcarbonyl)amino]-7-nitro-1,3-benzothiazol-6-yl}oxy)phenyl]benzamide], in experiment [2], the half-inhibitory concentration (IC50) was less than 500 nM and the inhibition at 10 µM was 93%.

As to `CC(C)(C#N)c1cccc(C(=O)Nc2cccc(Oc3ccc4nc(NC(=O)C5CC5)sc4c3N)c2)c1` [Example 43, N-[3-({7-amino-2-[(cyclopropylcarbonyl)amino]-1,3-benzothiazol-6-yl}oxy)phenyl]-3-(1-cyano-1-methylethyl)benzamide], in experiment [2], the IC50 was less than 500 nM and the inhibition at 10 µM is 100%.

In the case of `CC(C)(C#N)c1cccc(C(=O)Nc2cccc(Oc3ccc4nc(NC(=O)C5CC5)sc4c3Cl)c2)c1` [Example 44, N-[3-({7-chloro-2-[(cyclopropylcarbonyl)amino]-1,3-benzothiazol-6-yl}oxy)phenyl]-3-(1-cyano-1-methylethyl)benzamide], in experiment [2], the IC50 is less than 500 nM and the inhibition at 10 µM was found to be 93%.

Turning to `CC(=O)Nc1nc2ccc(Oc3cccc(NC(=O)Cc4cccc(C(F)(F)F)c4)c3)c(C#N)c2s1` [Example 49, N-(3-{[2-(acetylamino)-7-cyano-1,3-benzothiazol-6-yl]oxy}phenyl)-2-[3-(trifluoromethyl)phenyl]acetamide], in experiment [1], the IC50 was less than 300 nM and the inhibition at 0.5 µM was found to be 63%.

Consider `N#Cc1c(Oc2cccc(NC(=O)Nc3ccc(C(F)(F)F)nc3)c2)ccc2nc(NC(=O)C3CC3)sc12` [Example 51, N-{7-cyano-6-[3-({[6-(trifluoromethyl)pyridin-3-yl]carbamoyl}amino)phenoxy]-1,3-benzothiazol-2-yl}cyclopropanecarboxamide], for which the inhibition at 1 µM at BRAF (V600E) kinase came to 100%.

For the compound `N#Cc1c(Oc2cccc(NC(=O)Nc3ccc(C(F)(F)F)cn3)c2)ccc2nc(NC(=O)C3CC3)sc12` [Example 52, N-{7-cyano-6-[3-({[5-(trifluoromethyl)pyridin-2-yl]carbamoyl}amino)phenoxy]-1,3-benzothiazol-2-yl}cyclopropanecarboxamide], at BRAF (V600E) kinase, the inhibition at 1 µM was 98%.

Regarding `COC(=O)c1c(Oc2ccc(F)c(NC(=O)Cc3cccc(C(F)(F)F)c3)c2)ccc2nc(NC(=O)C3CC3)sc12` [Example 54, methyl 2-[(cyclopropylcarbonyl)amino]-6-[4-fluoro-3-({[3-(trifluoromethyl)phenyl]acetyl}amino)phenoxy]-1,3-benzothiazole-7-carboxylate], in experiment [1], the IC50 was less than 300 nM and the inhibition at 0.5 µM stood at 100%.

For the origin of these results see US8497274B2, “Heterocyclic compound and use thereof” (Takeda Pharmaceutical Company Limited, priority 2008, dated 2013).
